From patent US11077136B2, “Compositions for the skin” (BIOIBERICA, S.A.U., priority 2016, dated 2021)

Tested on: Human dermal fibroblasts (HDF)
Experiment: In vitro wound closure (healing activity) test, area covered with cells
Type: cell-based
Conditions: 48 hours; O-3 0.156 mg/mL, HA 0.0017 mg/mL, DS 0.0004 mg/mL, N 0.0818 mg/mL, ZnO 0.0027 mg/mL; FIG. 4 and 5; p<0.05 where significant
Description: Human dermal fibroblasts (HDF) were used, which were cultivated in dishes with 24 wells with a surface area of 1.99 cm^2, with a density of 7×10^4 cells/well. A mark was made in a straight line approximately 2 mm wide on the surface of the single layer of cells using a sterile plastic tip, creating an area free of cells. […]
The cells were then allowed to migrate to the center of the dish, to cover the area free of cells, in the presence of the compounds being studied, and the area covered with cells was quantified after 48 hours using the TIRF Automated Inverted Microscope—ScanR Olympus […] and a 4× objective lens (total amplification 40×). […]
To determine the healing activity of each treatment, the area covered by cells was quantified, in μm^2, before (T0 h) and after (48 h) the treatment, using image analysis using the software Image J. The results were compared with those obtained for the negative and positive controls.

## [O]=[Zn] [ZnO, Zinc oxide]
  increase in healing (area covered with cells) versus negative control: did not cause a significant increase in healing
